Biological target: T1, human full-length MKNK1 (Homo sapiens, UniProt Q9BUB5, T385D)
T1 construct: GST (N); purchased Carna Biosciences 02-145; host or cells: insect cells (baculovirus expression system)
Assay: MKNK1 kinase high ATP assay (TR-FRET)
Type: biochemical
Conditions: high ATP (2 mM final), 15 min preincubation with enzyme, GST-MKNK1 (T344D)
How it was run: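 GST-tagged human full-length MKNK1 (T344D), insect-cell expressed, preincubated 15 min at 22 °C with compound, then reacted 30 min at 22 °C with 2 mM ATP and 0.06 μM biotinylated peptide (final) in HEPES pH 7.5. Phospho-peptide detected by TR-FRET (665/620 nm ratio) after EDTA stop; normalised to no-inhibitor and no-enzyme controls.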

T1 sequence (Q9BUB5 1-424 isoform Q9BUB5-2 T344D): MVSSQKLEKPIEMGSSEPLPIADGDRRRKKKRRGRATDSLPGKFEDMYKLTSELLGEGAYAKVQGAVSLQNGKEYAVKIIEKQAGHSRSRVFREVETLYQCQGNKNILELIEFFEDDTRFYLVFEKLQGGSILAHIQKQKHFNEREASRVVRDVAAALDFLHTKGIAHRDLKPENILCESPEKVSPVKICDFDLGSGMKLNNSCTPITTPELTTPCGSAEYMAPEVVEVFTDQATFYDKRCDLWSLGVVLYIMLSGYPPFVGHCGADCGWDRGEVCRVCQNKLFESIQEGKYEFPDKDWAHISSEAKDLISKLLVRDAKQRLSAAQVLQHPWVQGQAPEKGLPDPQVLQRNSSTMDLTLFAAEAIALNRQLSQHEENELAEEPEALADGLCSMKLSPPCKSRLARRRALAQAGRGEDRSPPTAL

Compound | IC50
CN(C)C(=O)N1CCc2c(sc3ncnc(Nc4ccc5[nH]ncc5c4)c23)C1 [Example 15, 4-(1H-Indazol-5-ylamino)-N,N-dimethyl-5,8-dihydropyrido[4′,3′:4,5]thieno[2,3-d]pyrimidine-7(6H)-carboxamide] | 32 nM
COc1cc2[nH]ncc2cc1Nc1ncnc2sc3c(c12)CCN(C(=O)N1[C@H](C)COC[C@H]1C)C3 [Example 93, [(3R,5R)-3,5-Dimethylmorpholin-4-yl]{4-[(6-methoxy-1H-indazol-5-yl)amino]-5,8-dihydropyrido[4′,3′:4,5]thieno[2,3-d]pyrimidin-7(6H)-yl}methanone] | 4 nM
CN1CCC(C(=O)N2CCc3c(sc4ncnc(Nc5ccn6nccc6c5)c34)C2)CC1 [Example 79, (1-Methylpiperidin-4-yl)[4-(pyrazolo[1,5-a]pyridin-5-ylamino)-5,8-dihydropyrido[4′,3′:4,5]thieno[2,3-d]pyrimidin-7(6H)-yl]methanone] | 188 nM
COc1cc2[nH]ncc2cc1Nc1ncnc2sc3c(c12)CCN(C(=O)c1ccno1)C3 [Example 102, {4-[(6-Methoxy-1H-indazol-5-yl)amino]-5,8-dihydropyrido[4′,3′:4,5]thieno[2,3-d]pyrimidin-7(6H)-yl}(1,2-oxazol-5-yl)methanone] | 5 nM
COc1cc2[nH]ncc2cc1Nc1ncnc2sc3c(c12)CCN(C(=O)N1CCCC1)C3 [Example 72, {4-[(6-Methoxy-1H-indazol-5-yl)amino]-5,8-dihydropyrido[4′,3′:4,5]thieno[2,3-d]pyrimidin-7(6H)-yl}(pyrrolidin-1-yl)methanone] | 10 nM
CN1CCC(C(=O)N2CCc3c(sc4ncnc(Nc5cc6cn[nH]c6cn5)c34)C2)CC1 [Example 77, (1-Methylpiperidin-4-yl)[4-(1H-pyrazolo[3,4-c]pyridin-5-ylamino)-5,8-dihydropyrido[4′,3′:4,5]thieno[2,3-d]pyrimidin-7(6H)-yl]methanone] | 28 nM
CS(=O)(=O)N1CCc2c(sc3ncnc(Nc4ccc5[nH]c(=O)sc5c4)c23)C1 [Example 39, 6-{[7-(Methylsulfonyl)-5,6,7,8-tetrahydropyrido[4′,3′:4,5]thieno[2,3-d]pyrimidin-4-yl]amino}-1,3-benzothiazol-2(3H)-one] | 316 nM
CSc1cc2[nH]ncc2cc1Nc1ncnc2sc3c(c12)CCN(C(=O)C1CCN(C)CC1)C3 [Example 74, (1-Methylpiperidin-4-yl)[4-{[6-(methylsulfanyl)-1H-indazol-5-yl]amino}-5,8-dihydropyrido[4′,3′:4,5]thieno[2,3-d]pyrimidin-7(6H)-yl]methanone] | 4 nM
c1nc(Nc2cnc3[nH]ncc3c2)c2c3c(sc2n1)CN(CCN1CCOCC1)CC3 [Example 64, 7-[2-(Morpholin-4-yl)ethyl]-N-(1H-pyrazolo[3,4-b]pyridin-5-yl)-5,6,7,8-tetrahydropyrido[4′,3′:4,5]thieno[2,3-d]pyrimidin-4-amine] | 119 nM
COc1cc2[nH]ncc2cc1Nc1ncnc2sc3c(c12)CCN(C(=O)NCCC(F)(F)F)C3 [Example 100, 4-[(6-Methoxy-1H-indazol-5-yl)amino]-N-(3,3,3-trifluoropropyl)-5,8-dihydropyrido[4′,3′:4,5]thieno[2,3-d]pyrimidine-7(6H)-carboxamide] | 1 nM
O=C(N1CCOCC1)N1CCc2c(sc3ncnc(Nc4cnc5[nH]ncc5c4)c23)C1 [Example 44, Morpholin-4-yl[4-(1H-pyrazolo[3,4-b]pyridin-5-ylamino)-5,8-dihydropyrido[4′,3′:4,5]thieno[2,3-d]pyrimidin-7(6H)-yl]methanone] | 118 nM
COc1cc2[nH]ncc2cc1Nc1ncnc2sc3c(c12)CCN(Cc1ncon1)C3 [Example 80, N-(6-Methoxy-1H-indazol-5-yl)-7-(1,2,4-oxadiazol-3-ylmethyl)-5,6,7,8-tetrahydropyrido[4′,3′:4,5]thieno[2,3-d]pyrimidin-4-amine] | 17 nM
O=C(N1CCOCC1)N1CCc2c(sc3ncnc(Nc4ccc5[nH]c(=O)sc5c4)c23)C1 [Example 41, 6-{[7-(Morpholin-4-ylcarbonyl)-5,6,7,8-tetrahydropyrido[4′,3′:4,5]thieno[2,3-d]pyrimidin-4-yl]amino}-1,3-benzothiazol-2(3H)-one] | 216 nM
COc1cc2[nH]ncc2cc1Nc1ncnc2sc3c(c12)CCN(C(=O)c1cccn1C)C3 [Example 73, {4-[(6-Methoxy-1H-indazol-5-yl)amino]-5,8-dihydropyrido[4′,3′:4,5]thieno[2,3-d]pyrimidin-7(6H)-yl}(1-methyl-1H-pyrrol-2-yl)methanone] | 7 nM
CS(=O)(=O)N1CCc2c(sc3ncnc(Nc4cc5cn[nH]c5cc4Cl)c23)C1 [Example 49, N-(6-Chloro-1H-indazol-5-yl)-7-(methylsulfonyl)-5,6,7,8-tetrahydropyrido[4′,3′:4,5]thieno[2,3-d]pyrimidin-4-amine] | 125 nM
FC(F)(F)CN1CCc2c(sc3ncnc(Nc4cnc5[nH]ncc5c4)c23)C1 [Example 10, N-(1H-Pyrazolo[3,4-b]pyridin-5-yl)-7-(2,2,2-trifluoroethyl)-5,6,7,8-tetrahydropyrido[4′,3′:4,5]thieno[2,3-d]pyrimidin-4-amine] | 79 nM
CSc1cc2[nH]ncc2cc1Nc1ncnc2sc3c(c12)CCN(C(=O)OC(C)(C)C)C3 [Example 2, tert-Butyl 4-{[6-(methylsulfanyl)-1H-indazol-5-yl]amino}-5,8-dihydropyrido[4′,3′:4,5]thieno[2,3-d]pyrimidine-7(6H)-carboxylate] | 16 nM
CC(C)(C)OC(=O)N1CCc2c(sc3ncnc(Nc4cc5cn[nH]c5cc4Br)c23)C1 [Example 25, tert-Butyl 4-[(6-bromo-1H-indazol-5-yl)amino]-5,8-dihydropyrido[4′,3′:4,5]thieno[2,3-d]pyrimidine-7(6H)-carboxylate] | 31 nM
COc1cc2[nH]ncc2cc1Nc1ncnc2sc3c(c12)CCN(C(=O)N1C[C@@H](C)O[C@@H](C)C1)C3 [Example 32, [(2R,6S)-2,6-Dimethylmorpholin-4-yl]{4-[(6-methoxy-1H-indazol-5-yl)amino]-5,8-dihydropyrido[4′,3′:4,5]thieno[2,3-d]pyrimidin-7(6H)-yl}methanone] | 10 nM
c1nc(Nc2ccc3[nH]ncc3c2)c2c3c(sc2n1)CN(CCN1CCOCC1)CC3 [Example 61, N-(1H-Indazol-5-yl)-7-[2-(morpholin-4-yl)ethyl]-5,6,7,8-tetrahydropyrido[4′,3′:4,5]thieno[2,3-d]pyrimidin-4-amine] | 25 nM
CC(C)C(=O)N1CCc2c(sc3ncnc(Nc4cnc5[nH]ncc5c4)c23)C1 [Example 21, 2-Methyl-1-[4-(1H-pyrazolo[3,4-b]pyridin-5-ylamino)-5,8-dihydropyrido[4′,3′:4,5]thieno[2,3-d]pyrimidin-7(6H)-yl]propan-1-one] | 40 nM
CC(C)(C)OC(=O)N1CCc2c(sc3ncnc(Nc4ccc5[nH]ncc5c4)c23)C1 [Example 5, tert-Butyl 4-(1H-indazol-5-ylamino)-5,8-dihydropyrido[4′,3′:4,5]thieno[2,3-d]pyrimidine-7(6H)-carboxylate] | 18 nM
CN(C)C(=O)N1CCc2c(sc3ncnc(Nc4cc5cn[nH]c5cc4Cl)c23)C1 [Example 27, 4-[(6-Chloro-1H-indazol-5-yl)amino]-N,N-dimethyl-5,8-dihydropyrido[4′,3′:4,5]thieno[2,3-d]pyrimidine-7(6H)-carboxamide] | 25 nM
CC(C)C(=O)N1CCc2c(sc3ncnc(Nc4ccc5[nH]c(=O)sc5c4)c23)C1 [Example 18, 6-[(7-Isobutyryl-5,6,7,8-tetrahydropyrido[4′,3′:4,5]thieno[2,3-d]pyrimidin-4-yl)amino]-1,3-benzothiazol-2(3H)-one] | 113 nM
COc1nc2[nH]ncc2cc1Nc1ncnc2sc3c(c12)CCN(C(=O)N1CCOCC1)C3 [Example 52, {4-[(6-Methoxy-1H-pyrazolo[3,4-b]pyridin-5-yl)amino]-5,8-dihydropyrido[4′,3′:4,5]thieno[2,3-d]pyrimidin-7(6H)-yl}(morpholin-4-yl)methanone] | 13 nM
COc1cc2[nH]ncc2cc1Nc1ncnc2sc3c(c12)CCN(C(=O)N1CCOC[C@H]1C)C3 [Example 96, {4-[(6-Methoxy-1H-indazol-5-yl)amino]-5,8-dihydropyrido[4′,3′:4,5]thieno[2,3-d]pyrimidin-7(6H)-yl}[(3R)-3-methylmorpholin-4-yl]methanone] | 3 nM
CSc1cc2[nH]ncc2cc1Nc1ncnc2sc3c(c12)CCN(CC(F)(F)F)C3 [Example 11, N-[6-(Methylsulfanyl)-1H-indazol-5-yl]-7-(2,2,2-trifluoroethyl)-5,6,7,8-tetrahydropyrido[4′,3′:4,5]thieno[2,3-d]pyrimidin-4-amine] | 15 nM
